Test results taken from patent publication US5877210A, “Phosphotyrosine phosphatase inhibitors or phosphotyrosine kinase activators for controlling cellular proliferation” (priority 1995, dated 1999).
Entries after “also recorded” stand apart in the source; their conditions may differ. Where two headings read alike, the source gives them in different places.

What was measured:
Ramos cells = test: Anti-phosphotyrosine western blot of cell lysates; format: cell-based, human
Jurkat [1] = test: Anti-phosphotyrosine immunoblot; format: cell-based, human
Ramos = test: [3H]thymidine incorporation assay; format: cell-based, human; settings: for [3H]cpm incorporation: seven days
Procedure: (§1) For each cell type, the cells were passaged uniformly for all drug doses given during the seven-day period. The cells were then pulsed for six hours with [^3 H]thymidine. The extent of DNA synthesis was then determined by counting the radioactivity incorporated into the cells.
(§2) For assays of cellular proliferation, cells were grown five days in the presence of the indicated concentrations of BMLOV, pulsed 6 hr with [^3 H]-thymidine (New England Nuclear, Boston, Mass.), and counted in a liquid scintillation counter. Human peripheral blood lymphocytes (PBL) from normal volunteers were isolated from lymphocyte separation medium (Litton Bionetics, Kensington, Md.) by density gradient centrifugation. Monocytes were depleted from PBL by two rounds of plastic absorption for 30 minutes at 37° C. B cells were enriched for by negative selection using complement plus monoclonal antibodies to CD2, CD3, CD4, and CD8 for complement depletion. Clonogenic assays of colony formation in methylcellulose medium were performed as previously described (F. M. Uckun et al. (1992), supra).
The effect of the variation of treatment time with pV(phen) on the inhibition of proliferation in Ramos cells is shown in Table 11. These cells were grown in pV(phen) for the indicated times, washed, and then grown in fresh media for the balance of the 5-day assay. These cells were pulsed with [^3 H]-thymidine on day 5.

A20 = test: [3H]thymidine incorporation assay; format: cell-based, murine; settings: for [3H]cpm incorporation: seven days; for [3H]-thymidine radioactivity incorporated: 5 days
Procedure: as §1, §2
The cell lines A20, 70Z-3, L1210, and P388D were used. A20 is a B cell lymphoma cell line; 70Z/3 is a B cell leukemia cell line; L1210 is a T cell leukemia cell line; and P388D is a myeloid leukemia cell line. The cells were grown for 5 days in the presence of pV(phen) and pulsed with [^3 H]-thymidine on day 5. The extent of DNA synthesis was then determined by counting the radioactivity incorporated into the cells, as in Example 5, supra. […] The effects on L1210 cells and P388D cells are particularly noteworthy because these cell lines have been extensively used by the National Cancer Institute to identify anti-cancer drugs.

[2] = tested on: peripheral blood lymphocytes (PBL); test: PBL growth driven by antibody/cytokine stimulation; format: cell-based, human
CEM = format: cell-based, human
Text: (§3) The extent to which the T cells were being killed by BMLOV treatment relative to the Ramos B cells was therefore examined. […] The percentage of cells in each quadrant is indicated. The lower right quadrant contains the viable cells.

Syk tyrosine kinase = test: Syk tyrosine phosphorylation (anti-Syk immunoprecipitate, anti-phosphotyrosine blot) in Ramos B cells; format: cell-based, human; settings: 16 hours, no antigen receptor stimulation
Procedure: BMLOV is known to inhibit Src-family tyrosine kinases. […] Ramos B cells were treated with the indicated concentrations of BMLOV or pV(phen) for 16 hours. The cells were then lysed and the Syk tyrosine kinase was immunoprecipitated with anti-Syk antibodies. The tyrosine phosphorylation of Syk was examined by an anti-phosphotyrosine Western blot of the immunoprecipitated Syk protein following SDS-polyacrylamide gel electrophoresis (shown at left). The amount of Syk protein recovered was determined by anti-Syk Western blotting of identical samples (shown at right).
In the experiments shown in FIG. 23, cells were treated 16 h with BMLOV and then stimulated with α-μ for 5 min. Cells were then washed and resuspended in fresh media at equal concentrations of BMLOV at 37° C. Cells were harvested and lysted at times following the initiation of α-μ stimulation as indicated. Antibody binding in immunoblots was detected by ECL.

Jurkat T cells = test: TUNEL analysis of fragmented DNA by flow cytometry; format: cell-based, human; settings: 25 or 50 μM BMLOV, 48 h
Procedure: (§4) TUNEL (TdT-mediated dUTP-biotin nick end labeling) staining for the in situ detection of fragmented DNA was as previously described (Y. Gavrieli et al., J. Cell Biol. 119:493-501 (1992)) with modification to permit detection by flow cytometry. Cells (2×106) were washed with PBS and resuspended in 4% formaldehyde in PBS at 4° C. for 4 h for fixation. Cells were rinsed in PBS and permeabilized by resuspension in 70% ethanol in PBS for 1 h at 4° C. Cells were rinsed with PBS, rinsed with TdT buffer (30 mM Tris-HCl, pH 7.2, 140 mM cacodylate, 1 mM cobalt chloride) and resuspended in 150 μl TdT buffer. Biotin-dUTP (SIGMA, St. Louis, Mo.) was added to 15 μM and terminal deoxynucleotidyl transferase (TdT, Boehringer Mannheim) was added to 0.6 U/μl. DNA synthesis was for 1 h at 37° C. and was stopped by the addition of 1 ml cold PBS. Cells were rinsed twice with PBS and resuspended in 500 μl of PBS containing 5 μg of fluorescein-avidin at 4° C. for 16 h. Cells were washed twice in PBS and resuspended in 400 μl of PBS for flow cytometry. Cells were analyzed using a Becton-Dickinson FACScan flow cytometer and LYSIS analysis software.
(§5) The extent of DNA fragmentation and the cell type selective activity was quantitated by TUNEL analysis (Y. Gavrieli et al., (1992), supra); FIG. 28). […]

Ramos B cells = test: TUNEL analysis of fragmented DNA by flow cytometry; format: cell-based, human; settings: 25 or 50 μM BMLOV, 48 h
Procedure: as §4, §5

[3] = tested on: normal peripheral B cells; settings: human, 120 h, 25 µM
Procedure: Cell death was measured by staining cells with propidium iodine followed by flow cytometry (EPICS C, Coulter) as previously described (N. K. Damle et al. (1993), supra; Y. Liu & C. A. J. Janeway, "Interferon Gamma Plays a Critical Role in Induced Cell Death of Effector T Cells: A Possible Third Mechanism of Self-Tolerance," J. Exp. Med. 172:1735-1739 (1990)). Flow cytometric data on forward scatter and red fluorescence arising from propidium iodine binding to cellular DNA was collected for 5,000 cells and analyzed by the Quadstat Program (N. K. Damle, (1993), supra). The membranes of dead cells are permeable to propidium iodine (Y. Liu & C. A. Janeway, (1990), supra), but cells undergoing the process of apoptosis can shrink in size while temporarily maintaining plasma membrane integrity (J. J. Cohen et al., "Apoptosis and Programmed Cell Death and Immunity," Annu. Rev. Immunol. 10:267-293 (1992)). […] Only cells displaying normal size and resistance to staining by propidium iodide are considered viable cells and are found in the lower left quadrant (M. K. Damle et al. (1993), supra). The percentage of cells in each quadrant was calculated by the Quadstat program. […]
To provide a final measure of cell death, propidium iodide staining of cells was used. […] Viability was measured by staining with propidium iodide followed by flow cytometric analysis as described above. […]

Jurkat [4] = format: cell-based, human
Text: as §3

Cc1occc(=O)c1[O-].Cc1occc(=O)c1[O-].[O]=[V+2] [BMLOV, Bis(maltolato)oxovanadium (IV)]
level of tyrosine phosphorylation (Ramos cells; 50 μM BMLOV, 16 hours): high levels of tyrosine phosphorylation
time at which tyrosine phosphorylation begins (Ramos cells; 100 μM BMLOV): ≤ 8 min
induction of tyrosine phosphorylation compared with sodium orthovanadate (Ramos cells; 100 μM each, 30 min): more potent than orthovanadate
induction of cellular tyrosine phosphorylation (Ramos cells; Ramos B cells, varying doses, 1 hour or 16 h): induces tyrosine phosphorylation in a dose-dependent manner; also recorded: dose-dependent induction of tyrosine phosphorylation
tyrosine phosphorylation response to sIg crosslinking (Ramos cells; particularly at early time points): enhanced the tyrosine phosphorylation response
induction of tyrosine phosphorylation (Jurkat [1]; 16 hr): only low levels of tyrosine phosphorylation
[3H]cpm incorporation (Ramos; 1 μM BMLOV): 289936 cpm
[3H]cpm incorporation (Ramos; 5 μM BMLOV): 65545 cpm
[3H]cpm incorporation (Ramos; 10 μM BMLOV): 167 cpm
[3H]cpm incorporation (Ramos; 25 μM BMLOV): 149 cpm
sensitivity of proliferation to BMLOV, in words (Ramos; 10 and 25 μM, 5 or 7 days): highly sensitive
[3H]cpm incorporation (A20; 1 μM BMLOV): 419947 cpm
[3H]cpm incorporation (A20; 5 μM BMLOV): 289932 cpm
[3H]cpm incorporation (A20; 10 μM BMLOV): 66157 cpm
[3H]cpm incorporation (A20; 25 μM BMLOV): 281 cpm
sensitivity of proliferation to BMLOV, in words (A20; 25 μM, 5 or 7 days): very sensitive; also recorded: highly sensitive
PBL growth driven by anti-CD28 antibody plus IL-2 ([2]; 1 μM BMLOV): markedly inhibited
PBL growth driven by anti-CD3 antibody plus anti-CD28 antibody ([2]; 10 μM BMLOV): strongly inhibited
killing by BMLOV, in words (CEM; CEM, 25 μM BMLOV, 4 days): resistant to killing
tyrosine phosphorylation of Syk (Syk tyrosine kinase): only very slight tyrosine phosphorylation of Syk; also recorded: induced tyrosine phosphorylation of Syk in a dose-dependent manner
DNA fragmentation by TUNEL (Jurkat T cells): little labeling was observed
DNA fragmentation by TUNEL (Ramos B cells): extensively induced in a dose dependent manner
viable cells [3]: 27%

[Na+].[O]=[V-]12([O][O]1)[O][O]2.c1cnc2c(c1)ccc1cccnc12 [pV(phen), sodium (1,10-phenanthroline) oxodiperoxovanadium (V)]
proteins tyrosine phosphorylated, compared with BMLOV (Ramos cells; 16 hours, particularly at 10 μM): causes the tyrosine phosphorylation of a significantly larger group of proteins than does BMLOV
induction of tyrosine phosphorylation by pV(phen) (Ramos cells; Ramos B cells, 16 hours): high level of tyrosine phosphorylation
induction of tyrosine phosphorylation by pV(phen) (Jurkat [1]; Jurkat T cells, 16 hours): high level of tyrosine phosphorylation
[3H] Thymidine Incorporation (Ramos; 1 μM pV(phen) for 4 hr, then fresh media to day 5): 540438 ± 86014 cpm
[3H] Thymidine Incorporation (Ramos; 1 μM pV(phen) for 8 hr, then fresh media to day 5): 444806 ± 20361 cpm
[3H] Thymidine Incorporation (Ramos; 1 μM pV(phen) for 24 hr, then fresh media to day 5): 396533 ± 16116 cpm
[3H] Thymidine Incorporation (Ramos; 1 μM pV(phen) for 5 d): 1969 ± 1295 cpm
inhibition of proliferation (Ramos; 1 μM pV(phen), full 5-day treatment): ≥ 99%
[3H] Thymidine Incorporation (Ramos; 5 μM pV(phen) for 4 hr, then fresh media to day 5): 502956 ± 20963 cpm
[3H] Thymidine Incorporation (Ramos; 5 μM pV(phen) for 8 hr, then fresh media to day 5): 351849 ± 7357 cpm
[3H] Thymidine Incorporation (Ramos; 5 μM pV(phen) for 24 hr, then fresh media to day 5): 312 ± 83 cpm
[3H] Thymidine Incorporation (Ramos; 5 μM pV(phen) for 5 d): 615 ± 268 cpm
[3H] Thymidine Incorporation (Ramos; 10 μM pV(phen) for 4 hr, then fresh media to day 5): 554511 ± 10077 cpm
[3H] Thymidine Incorporation (Ramos; 10 μM pV(phen) for 8 hr, then fresh media to day 5): 185021 ± 11112 cpm
[3H] Thymidine Incorporation (Ramos; 10 μM pV(phen) for 24 hr, then fresh media to day 5): 1862 ± 1461 cpm
[3H] Thymidine Incorporation (Ramos; 10 μM pV(phen) for 5 d): 982 ± 519 cpm
[3H] Thymidine Incorporation (Ramos; 25 μM pV(phen) for 4 hr, then fresh media to day 5): 433034 ± 74272 cpm
[3H] Thymidine Incorporation (Ramos; 25 μM pV(phen) for 8 hr, then fresh media to day 5): 877 ± 93 cpm
[3H] Thymidine Incorporation (Ramos; 25 μM pV(phen) for 24 hr, then fresh media to day 5): 399 ± 231 cpm
[3H] Thymidine Incorporation (Ramos; 25 μM pV(phen) for 5 d): 651 ± 295 cpm
[3H]-thymidine radioactivity incorporated (A20; 5 μM pV(phen)): 73 ± 23
[3H]-thymidine radioactivity incorporated (A20; 10 μM pV(phen)): 76 ± 48
cells killed (CEM; CEM, 10 μM pV(phen), three days): all the cells
cells killed (CEM; human, cem cells, 48 h, 10 µM): 98%
cells killed (Jurkat [4]; Jurkat, 10 μM pV(phen), three days): all the cells
cells killed (Jurkat [4]; human, jurkat cells, 48 h, 10 µM): 98%
tyrosine phosphorylation of Syk (Syk tyrosine kinase): strongly induces tyrosine phosphorylation of the Syk tyrosine kinase
